From ChEMBL document CHEMBL1201862, “PubChem BioAssay data set” (2004)
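Following 48 hours of exposure in 96-well plates, responses at five concentrations were used to interpolate endpoints linearly. GI50 is the concentration that inhibits growth by half.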 Active and inactive are the calls of the source. Cut-off read from the data, not from the text of the source: active = GI50 up to about 1.1 µM and inactive = higher.

Assays:
Assay in all cases: NCI tumour cell line growth inhibition, 48 h
K562 = test system: K562
MOLT-4 = test system: MOLT-4
OVCAR-3 = test system: OVCAR-3
NCI/ADR-RES = test system: NCI/ADR-RES
NCI-H23 = test system: NCI-H23
TK-10 = test system: TK-10
LOX IMVI = test system: LOX IMVI
BT-549 = test system: BT-549
KM12 = test system: KM12
Malme-3M = test system: Malme-3M
A549 = test system: A549
M14 = test system: M14
786-0 = test system: 786-0
CAKI-1 = test system: CAKI-1
SF-539 = test system: SF-539
T47D = test system: T47D
MDA-N = test system: MDA-N
HL-60 = test system: HL-60
NCI-H522 = test system: NCI-H522

Row | Compound | GI50 (K562) | GI50 (MOLT-4) | GI50 (OVCAR-3) | GI50 (NCI/ADR-RES) | GI50 (NCI-H23) | GI50 (TK-10) | GI50 (LOX IMVI) | GI50 (BT-549) | GI50 (KM12) | GI50 (Malme-3M) | GI50 (A549) | GI50 (M14) | GI50 (786-0) | GI50 (CAKI-1) | GI50 (SF-539) | GI50 (T47D) | GI50 (MDA-N) | GI50 (HL-60) | GI50 (NCI-H522)
1 | CN(C)CC1CCC/C(=C\c2ccc(OC(=O)/C=C/c3ccccc3)cc2)C1=O (configuration not stated) | 3.06 µM (inactive) | 1.3 µM (inactive) | 1.97 µM (inactive) | 1.94 µM (inactive) | 1.91 µM (inactive) | 1.73 µM (inactive) | 0.538 µM (active) | 2.11 µM (inactive) | 1.28 µM (inactive) | 2.2 µM (inactive) | 2.75 µM (inactive) | 2.36 µM (inactive) | 0.776 µM (active) | 1.82 µM (inactive) | 1.77 µM (inactive) | 1.06 µM (active) | 2.52 µM (inactive) | 1.85 µM (inactive) | –
2 | O=C1CCC(Cc2ccc(Cl)cc2Cl)C(=O)N1 (configuration not stated) | > 100 µM (inactive) | 59.7 µM (inactive) | > 100 µM (inactive) | > 100 µM (inactive) | > 100 µM (inactive) | > 100 µM (inactive) | > 100 µM (inactive) | 28.6 µM (inactive) | – | > 100 µM (inactive) | > 100 µM (inactive) | > 100 µM (inactive) | > 100 µM (inactive) | > 100 µM (inactive) | > 100 µM (inactive) | 80.4 µM (inactive) | – | > 100 µM (inactive) | 66.7 µM (inactive)
3 | CC1=CC[C@@H]2[C@@H](CC[C@@]2(C)O)C(C)(C)[C@H]1CC[C@@H]1[C@@]2(C)CC[C@@H](O)C(C)(C)O[C@@H]2CC[C@]1(C)O | 15.3 µM (inactive) | 17.9 µM (inactive) | 42.8 µM (inactive) | – | 24.5 µM (inactive) | 35.6 µM (inactive) | 16.3 µM (inactive) | 18.4 µM (inactive) | – | – | 27.3 µM (inactive) | 22.5 µM (inactive) | 18.3 µM (inactive) | 20 µM (inactive) | 19.6 µM (inactive) | 39.2 µM (inactive) | 22.5 µM (inactive) | 21.4 µM (inactive) | –
4 | Cc1cc(=O)oc2c(CNC(Cc3ccccc3)C(=O)O)c(O)ccc12 (configuration not stated) | > 100 µM (inactive) | > 100 µM (inactive) | > 100 µM (inactive) | > 100 µM (inactive) | > 100 µM (inactive) | > 100 µM (inactive) | > 100 µM (inactive) | – | > 100 µM (inactive) | 61.5 µM (inactive) | > 100 µM (inactive) | > 100 µM (inactive) | > 100 µM (inactive) | > 100 µM (inactive) | > 100 µM (inactive) | > 100 µM (inactive) | > 100 µM (inactive) | > 100 µM (inactive) | > 100 µM (inactive)
5 | Cc1nc2cccc([N+](=O)[O-])c2c(NCCCN(C)C)c1C | 31.7 µM (inactive) | 20.5 µM (inactive) | 26.6 µM (inactive) | > 100 µM (inactive) | 28.1 µM (inactive) | > 40.9 µM (inactive) | 84.9 µM (inactive) | – | 34.6 µM (inactive) | 22.2 µM (inactive) | 60.4 µM (inactive) | 35.5 µM (inactive) | > 61.5 µM (inactive) | 32.9 µM (inactive) | 45.4 µM (inactive) | > 100 µM (inactive) | 26.7 µM (inactive) | 11 µM (inactive) | 15.2 µM (inactive)
6 | C[C@@H](c1ccccc1)n1c(N)c(C#N)c2ccc([N+](=O)[O-])cc2c1=O | 12.8 µM (inactive) | – | – | 7.1 µM (inactive) | 18.9 µM (inactive) | 11.6 µM (inactive) | 14.2 µM (inactive) | 1.69 µM (inactive) | 16.7 µM (inactive) | – | > 100 µM (inactive) | – | 15 µM (inactive) | 15.1 µM (inactive) | – | 15.7 µM (inactive) | 23.1 µM (inactive) | 8.75 µM (inactive) | –
7 | CCCCOC(=O)NC(Nc1cccc(C(F)(F)F)c1)(C(F)(F)F)C(F)(F)F | 30.5 µM (inactive) | 34.8 µM (inactive) | 56 µM (inactive) | 45.3 µM (inactive) | 50.8 µM (inactive) | 71.1 µM (inactive) | 32.1 µM (inactive) | – | 75.9 µM (inactive) | 29.2 µM (inactive) | 66.8 µM (inactive) | 47.3 µM (inactive) | 84.1 µM (inactive) | 49.2 µM (inactive) | 73.6 µM (inactive) | 13.5 µM (inactive) | 41.4 µM (inactive) | 23.4 µM (inactive) | 56.4 µM (inactive)
8 | CCOC(=O)c1sc2c(c1OC(=O)c1cc(OC)c(OC)c(OC)c1)c(=O)n(-c1ccccc1)c(=S)n2-c1ccccc1 | 65 µM (inactive) | 28.4 µM (inactive) | 87.7 µM (inactive) | 75.3 µM (inactive) | 53.1 µM (inactive) | > 100 µM (inactive) | > 100 µM (inactive) | – | > 100 µM (inactive) | > 100 µM (inactive) | > 100 µM (inactive) | 40.5 µM (inactive) | 84.1 µM (inactive) | > 100 µM (inactive) | > 100 µM (inactive) | 41.6 µM (inactive) | > 100 µM (inactive) | 62.8 µM (inactive) | 4.81 µM (inactive)
9 | CCOC(=O)C(NC(=O)CC)(Nc1ccc(F)cc1F)C(F)(F)F (configuration not stated) | 60.4 µM (inactive) | > 100 µM (inactive) | – | > 100 µM (inactive) | > 100 µM (inactive) | > 100 µM (inactive) | > 100 µM (inactive) | > 100 µM (inactive) | – | – | > 100 µM (inactive) | > 100 µM (inactive) | > 100 µM (inactive) | 1.31 µM (inactive) | > 100 µM (inactive) | > 100 µM (inactive) | 31.9 µM (inactive) | 34 µM (inactive) | –
10 | CCCCCCCC(CC(=O)NC(CO)C(=O)NC(CO)CC(C)C)OC(=O)CC(CCCCCCC)OC(=O)CC(CCCCCCC)OC1OC(C)C(O)C(OC2OC(C)C(O)C(O)C2OC(C)=O)C1O (configuration not stated) | 4.13 µM (inactive) | 2.54 µM (inactive) | 12.9 µM (inactive) | – | 7.8 µM (inactive) | 13.3 µM (inactive) | – | 12.5 µM (inactive) | 2.74 µM (inactive) | 10.9 µM (inactive) | 12.3 µM (inactive) | 5.69 µM (inactive) | 5 µM (inactive) | 14.7 µM (inactive) | 11.1 µM (inactive) | 6.52 µM (inactive) | 3.46 µM (inactive) | 3 µM (inactive) | 12.6 µM (inactive)
11 | CSC(=S)NN=C1CCCCC1 | 27.4 µM (inactive) | 15.7 µM (inactive) | 22.3 µM (inactive) | 24.7 µM (inactive) | 29.9 µM (inactive) | 24.9 µM (inactive) | 20.5 µM (inactive) | 45.2 µM (inactive) | 28.7 µM (inactive) | 14.6 µM (inactive) | 26.7 µM (inactive) | 13.6 µM (inactive) | 37.3 µM (inactive) | 20.1 µM (inactive) | 24.4 µM (inactive) | 55.1 µM (inactive) | – | – | 24.8 µM (inactive)
12 | CCCCCCCCCCCCCCCC(=O)OCC(COP(=O)(O)OCCNC(=O)CCSSc1ccccn1)OC(=O)CCCCCCCCCCCCCCC (configuration not stated) | > 100 µM (inactive) | > 100 µM (inactive) | > 100 µM (inactive) | > 100 µM (inactive) | > 100 µM (inactive) | – | – | > 100 µM (inactive) | > 100 µM (inactive) | > 100 µM (inactive) | > 100 µM (inactive) | > 100 µM (inactive) | > 100 µM (inactive) | > 100 µM (inactive) | > 100 µM (inactive) | > 100 µM (inactive) | > 100 µM (inactive) | > 100 µM (inactive) | > 100 µM (inactive)
13 | CC(C)=Nn1cnc(C(=N)C#N)c1N | > 100 µM (inactive) | > 100 µM (inactive) | > 100 µM (inactive) | > 100 µM (inactive) | > 100 µM (inactive) | > 100 µM (inactive) | – | > 100 µM (inactive) | – | > 100 µM (inactive) | > 100 µM (inactive) | > 100 µM (inactive) | > 100 µM (inactive) | > 100 µM (inactive) | > 100 µM (inactive) | – | > 100 µM (inactive) | > 100 µM (inactive) | > 100 µM (inactive)
14 | CC(=O)c1sc(Nc2ccc(Cl)c(Cl)c2)nc1C | – | 14.8 µM (inactive) | 29.8 µM (inactive) | > 100 µM (inactive) | > 100 µM (inactive) | > 100 µM (inactive) | > 100 µM (inactive) | > 100 µM (inactive) | 65.2 µM (inactive) | > 100 µM (inactive) | 96.6 µM (inactive) | – | > 100 µM (inactive) | 74.3 µM (inactive) | > 100 µM (inactive) | 40 µM (inactive) | > 100 µM (inactive) | – | –
15 | CCOC(=O)C1=C(C)NC(=O)NC1c1ccc(N(CCCl)CCCl)cc1Cl (configuration not stated) | 12 µM (inactive) | – | 15.5 µM (inactive) | 16.7 µM (inactive) | 18.7 µM (inactive) | 18.3 µM (inactive) | 15.9 µM (inactive) | 15.5 µM (inactive) | 19.7 µM (inactive) | 14.9 µM (inactive) | 13.7 µM (inactive) | 15.8 µM (inactive) | 15.8 µM (inactive) | 17.2 µM (inactive) | 17.2 µM (inactive) | 5.77 µM (inactive) | – | 1.73 µM (inactive) | 13.6 µM (inactive)
16 | O=C(c1ccc([N+](=O)[O-])cc1)C(Br)C(Br)c1ccnc2ccccc12 (configuration not stated) | 2.83 µM (inactive) | 2.94 µM (inactive) | 6.32 µM (inactive) | 8.45 µM (inactive) | 2.55 µM (inactive) | 4.58 µM (inactive) | 2.11 µM (inactive) | 7.59 µM (inactive) | 1.91 µM (inactive) | 12.5 µM (inactive) | 8.28 µM (inactive) | 2.8 µM (inactive) | 2.54 µM (inactive) | 12.2 µM (inactive) | 6.4 µM (inactive) | 5.96 µM (inactive) | – | 2.8 µM (inactive) | 1.86 µM (inactive)
